The supplement of paper PMC8882468

Tested on: HCI-001 (organoid from a triple-negative breast cancer xenograft)
Experiment: CTG-3D luminescence at 96 h relative to day-0 seeding control (ratio to day 0); higher = more growth / less cytotoxicity; PDxO 3D drug screen, 96 h, CTG-3D normalised to day-0 seeding control.
Conditions: 10 µM; days in culture: 327

Row | SMILES | CTG-3D luminescence at 96 h
1 | CC(C)(C(=O)NCC(F)(F)C(F)(F)F)C(=O)N[C@@H]1C(=O)Nc2ccccc2-c2ccccc21 | 1.04
2 | CCN(c1cc(C#CCN2CCOCC2)cc(C(=O)NCc2c(C)cc(C)[nH]c2=O)c1C)[C@H]1CC[C@H](N(C)CCOC)CC1 | 1.53
3 | NC(=O)Nc1cc(-c2cccc(F)c2)sc1C(=O)N[C@H]1CCCNC1 [AZD7762] | 0.168
4 | O=C(/C=C/c1cccnc1)NCCCCC1CCN(C(=O)c2ccccc2)CC1 [FK866] | 0.0548
5 | CCc1c2c(nc3ccc(O)cc13)-c1cc3c(c(=O)n1C2)COC(=O)[C@]3(O)CC [SN-38] | 0.0312
6 | CCN1CCN(Cc2ccc(Nc3ncc(F)c(-c4cc(F)c5nc(C)n(C(C)C)c5c4)n3)nc2)CC1 [abemaciclib] | 1.12
7 | C=CCn1c(=O)c2cnc(Nc3ccc(N4CCN(C)CC4)cc3)nc2n1-c1cccc(C(C)(C)O)n1 [adavosertib] | 0.193

Same assay, conditions: 10 µM; days in culture: 346

Row | SMILES | CTG-3D luminescence at 96 h
8 | CC(C)(C(=O)NCC(F)(F)C(F)(F)F)C(=O)N[C@@H]1C(=O)Nc2ccccc2-c2ccccc21 | 1.31
9 | CCN(c1cc(C#CCN2CCOCC2)cc(C(=O)NCc2c(C)cc(C)[nH]c2=O)c1C)[C@H]1CC[C@H](N(C)CCOC)CC1 | 1.62
10 | NC(=O)Nc1cc(-c2cccc(F)c2)sc1C(=O)N[C@H]1CCCNC1 [AZD7762] | 0.184
11 | O=C(/C=C/c1cccnc1)NCCCCC1CCN(C(=O)c2ccccc2)CC1 [FK866] | 0.0541
12 | CCc1c2c(nc3ccc(O)cc13)-c1cc3c(c(=O)n1C2)COC(=O)[C@]3(O)CC [SN-38] | 0.0311
13 | CCN1CCN(Cc2ccc(Nc3ncc(F)c(-c4cc(F)c5nc(C)n(C(C)C)c5c4)n3)nc2)CC1 [abemaciclib] | 1.35
14 | C=CCn1c(=O)c2cnc(Nc3ccc(N4CCN(C)CC4)cc3)nc2n1-c1cccc(C(C)(C)O)n1 [adavosertib] | 0.163

Same assay, conditions: 10 µM; days in culture: 364

Row | SMILES | CTG-3D luminescence at 96 h
15 | CC(C)(C(=O)NCC(F)(F)C(F)(F)F)C(=O)N[C@@H]1C(=O)Nc2ccccc2-c2ccccc21 | 1.29
16 | CCN(c1cc(C#CCN2CCOCC2)cc(C(=O)NCc2c(C)cc(C)[nH]c2=O)c1C)[C@H]1CC[C@H](N(C)CCOC)CC1 | 1.85
17 | NC(=O)Nc1cc(-c2cccc(F)c2)sc1C(=O)N[C@H]1CCCNC1 [AZD7762] | 0.201
18 | O=C(/C=C/c1cccnc1)NCCCCC1CCN(C(=O)c2ccccc2)CC1 [FK866] | 0.0476
19 | CCc1c2c(nc3ccc(O)cc13)-c1cc3c(c(=O)n1C2)COC(=O)[C@]3(O)CC [SN-38] | 0.0303
20 | CCN1CCN(Cc2ccc(Nc3ncc(F)c(-c4cc(F)c5nc(C)n(C(C)C)c5c4)n3)nc2)CC1 [abemaciclib] | 1.22
21 | C=CCn1c(=O)c2cnc(Nc3ccc(N4CCN(C)CC4)cc3)nc2n1-c1cccc(C(C)(C)O)n1 [adavosertib] | 0.13

Same assay, conditions: 100 µM; days in culture: 240

Row | SMILES | CTG-3D luminescence at 96 h
22 | CC(C)(C(=O)NCC(F)(F)C(F)(F)F)C(=O)N[C@@H]1C(=O)Nc2ccccc2-c2ccccc21 | 1.23
23 | CCN(c1cc(C#CCN2CCOCC2)cc(C(=O)NCc2c(C)cc(C)[nH]c2=O)c1C)[C@H]1CC[C@H](N(C)CCOC)CC1 | 1.6
24 | NC(=O)Nc1cc(-c2cccc(F)c2)sc1C(=O)N[C@H]1CCCNC1 [AZD7762] | 0.00603
25 | O=C(/C=C/c1cccnc1)NCCCCC1CCN(C(=O)c2ccccc2)CC1 [FK866] | 0.134
26 | CCc1c2c(nc3ccc(O)cc13)-c1cc3c(c(=O)n1C2)COC(=O)[C@]3(O)CC [SN-38] | 0.0627
27 | CCN1CCN(Cc2ccc(Nc3ncc(F)c(-c4cc(F)c5nc(C)n(C(C)C)c5c4)n3)nc2)CC1 [abemaciclib] | 0.012
28 | C=CCn1c(=O)c2cnc(Nc3ccc(N4CCN(C)CC4)cc3)nc2n1-c1cccc(C(C)(C)O)n1 [adavosertib] | 0.152

Same assay, conditions: 100 µM; days in culture: 260

Row | SMILES | CTG-3D luminescence at 96 h
29 | CC(C)(C(=O)NCC(F)(F)C(F)(F)F)C(=O)N[C@@H]1C(=O)Nc2ccccc2-c2ccccc21 | 1.15
30 | CCN(c1cc(C#CCN2CCOCC2)cc(C(=O)NCc2c(C)cc(C)[nH]c2=O)c1C)[C@H]1CC[C@H](N(C)CCOC)CC1 | 1.19
31 | NC(=O)Nc1cc(-c2cccc(F)c2)sc1C(=O)N[C@H]1CCCNC1 [AZD7762] | 0.00469
32 | O=C(/C=C/c1cccnc1)NCCCCC1CCN(C(=O)c2ccccc2)CC1 [FK866] | 0.125
33 | CCc1c2c(nc3ccc(O)cc13)-c1cc3c(c(=O)n1C2)COC(=O)[C@]3(O)CC [SN-38] | 0.027
34 | CCN1CCN(Cc2ccc(Nc3ncc(F)c(-c4cc(F)c5nc(C)n(C(C)C)c5c4)n3)nc2)CC1 [abemaciclib] | 0.00996
35 | C=CCn1c(=O)c2cnc(Nc3ccc(N4CCN(C)CC4)cc3)nc2n1-c1cccc(C(C)(C)O)n1 [adavosertib] | 0.15

Same assay, conditions: 100 µM; days in culture: 269

Row | SMILES | CTG-3D luminescence at 96 h
36 | CC(C)(C(=O)NCC(F)(F)C(F)(F)F)C(=O)N[C@@H]1C(=O)Nc2ccccc2-c2ccccc21 | 1.78
37 | CCN(c1cc(C#CCN2CCOCC2)cc(C(=O)NCc2c(C)cc(C)[nH]c2=O)c1C)[C@H]1CC[C@H](N(C)CCOC)CC1 | 1.29
38 | NC(=O)Nc1cc(-c2cccc(F)c2)sc1C(=O)N[C@H]1CCCNC1 [AZD7762] | -0.00671
39 | O=C(/C=C/c1cccnc1)NCCCCC1CCN(C(=O)c2ccccc2)CC1 [FK866] | 0.0645
40 | CCc1c2c(nc3ccc(O)cc13)-c1cc3c(c(=O)n1C2)COC(=O)[C@]3(O)CC [SN-38] | 0.0406
41 | CCN1CCN(Cc2ccc(Nc3ncc(F)c(-c4cc(F)c5nc(C)n(C(C)C)c5c4)n3)nc2)CC1 [abemaciclib] | 0.0115
42 | C=CCn1c(=O)c2cnc(Nc3ccc(N4CCN(C)CC4)cc3)nc2n1-c1cccc(C(C)(C)O)n1 [adavosertib] | 0.087

Same assay, conditions: 100 µM; days in culture: 327

Row | SMILES | CTG-3D luminescence at 96 h
43 | CC(C)(C(=O)NCC(F)(F)C(F)(F)F)C(=O)N[C@@H]1C(=O)Nc2ccccc2-c2ccccc21 | 1.38
44 | CCN(c1cc(C#CCN2CCOCC2)cc(C(=O)NCc2c(C)cc(C)[nH]c2=O)c1C)[C@H]1CC[C@H](N(C)CCOC)CC1 | 2.14
45 | NC(=O)Nc1cc(-c2cccc(F)c2)sc1C(=O)N[C@H]1CCCNC1 [AZD7762] | 0.00741
46 | O=C(/C=C/c1cccnc1)NCCCCC1CCN(C(=O)c2ccccc2)CC1 [FK866] | 0.0869
47 | CCc1c2c(nc3ccc(O)cc13)-c1cc3c(c(=O)n1C2)COC(=O)[C@]3(O)CC [SN-38] | 0.0351
48 | CCN1CCN(Cc2ccc(Nc3ncc(F)c(-c4cc(F)c5nc(C)n(C(C)C)c5c4)n3)nc2)CC1 [abemaciclib] | 0.0169
49 | C=CCn1c(=O)c2cnc(Nc3ccc(N4CCN(C)CC4)cc3)nc2n1-c1cccc(C(C)(C)O)n1 [adavosertib] | 0.182

Same assay, conditions: 100 µM; days in culture: 346

Row | SMILES | CTG-3D luminescence at 96 h
50 | CC(C)(C(=O)NCC(F)(F)C(F)(F)F)C(=O)N[C@@H]1C(=O)Nc2ccccc2-c2ccccc21 | 1.57
51 | CCN(c1cc(C#CCN2CCOCC2)cc(C(=O)NCc2c(C)cc(C)[nH]c2=O)c1C)[C@H]1CC[C@H](N(C)CCOC)CC1 | 1
52 | NC(=O)Nc1cc(-c2cccc(F)c2)sc1C(=O)N[C@H]1CCCNC1 [AZD7762] | 0.0108
53 | O=C(/C=C/c1cccnc1)NCCCCC1CCN(C(=O)c2ccccc2)CC1 [FK866] | 0.128
54 | CCc1c2c(nc3ccc(O)cc13)-c1cc3c(c(=O)n1C2)COC(=O)[C@]3(O)CC [SN-38] | 0.0287
55 | CCN1CCN(Cc2ccc(Nc3ncc(F)c(-c4cc(F)c5nc(C)n(C(C)C)c5c4)n3)nc2)CC1 [abemaciclib] | 0.0179
56 | C=CCn1c(=O)c2cnc(Nc3ccc(N4CCN(C)CC4)cc3)nc2n1-c1cccc(C(C)(C)O)n1 [adavosertib] | 0.121

Same assay, conditions: 100 µM; days in culture: 364

Row | SMILES | CTG-3D luminescence at 96 h
57 | CC(C)(C(=O)NCC(F)(F)C(F)(F)F)C(=O)N[C@@H]1C(=O)Nc2ccccc2-c2ccccc21 | 0.937
58 | CCN(c1cc(C#CCN2CCOCC2)cc(C(=O)NCc2c(C)cc(C)[nH]c2=O)c1C)[C@H]1CC[C@H](N(C)CCOC)CC1 | 1.41
59 | NC(=O)Nc1cc(-c2cccc(F)c2)sc1C(=O)N[C@H]1CCCNC1 [AZD7762] | 0.00492
60 | O=C(/C=C/c1cccnc1)NCCCCC1CCN(C(=O)c2ccccc2)CC1 [FK866] | 0.0948
61 | CCc1c2c(nc3ccc(O)cc13)-c1cc3c(c(=O)n1C2)COC(=O)[C@]3(O)CC [SN-38] | 0.0177
62 | CCN1CCN(Cc2ccc(Nc3ncc(F)c(-c4cc(F)c5nc(C)n(C(C)C)c5c4)n3)nc2)CC1 [abemaciclib] | 0.0124
63 | C=CCn1c(=O)c2cnc(Nc3ccc(N4CCN(C)CC4)cc3)nc2n1-c1cccc(C(C)(C)O)n1 [adavosertib] | 0.0626
